According to US5922767A, “Substituted benzylurea derivatives and medicine containing the same” (SS Pharmaceutical Co., Ltd., priority 1996, dated 1999):

Assays:
ACAT in J774 cells = target: T1, ACAT in J774 cells (Mus musculus, UniProt Q61263); assay: Test for inhibitory activity against ACAT using J774 cells; type: cell-based; settings: 100 nM of each compound, Mean ± S.D., n = 3, vs DMSO control, read-out: Inhibition rate against ACAT activity in J774 cells
T1 construct: endogenous in cells; host or cells: J774 cells (mouse macrophage-like)
T1 sequence (Q61263 1-540): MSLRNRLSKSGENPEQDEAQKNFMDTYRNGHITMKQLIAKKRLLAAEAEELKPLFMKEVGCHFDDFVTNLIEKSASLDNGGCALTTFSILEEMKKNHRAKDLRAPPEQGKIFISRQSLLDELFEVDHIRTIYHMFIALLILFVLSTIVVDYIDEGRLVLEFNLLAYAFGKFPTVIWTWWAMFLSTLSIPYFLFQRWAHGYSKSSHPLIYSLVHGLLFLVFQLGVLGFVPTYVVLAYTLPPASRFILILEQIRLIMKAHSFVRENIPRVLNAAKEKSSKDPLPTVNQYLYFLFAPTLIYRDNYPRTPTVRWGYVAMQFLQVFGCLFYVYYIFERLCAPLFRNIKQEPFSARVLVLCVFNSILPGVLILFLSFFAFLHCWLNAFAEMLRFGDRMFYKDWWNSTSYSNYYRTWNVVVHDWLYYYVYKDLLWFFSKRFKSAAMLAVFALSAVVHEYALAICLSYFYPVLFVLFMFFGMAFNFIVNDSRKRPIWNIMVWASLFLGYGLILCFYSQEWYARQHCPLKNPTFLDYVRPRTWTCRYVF
Description: i) Test for inhibitory activity against ACAT using J774 cells:
The ACAT activity of J774 cells was measured as the radioactivity of cholesteryl oleate produced from [^14 C]oleic acid and cholesterol which were added to a culture solution.
The extract was dried to solid under reduced pressure. After the resultant residue was then developed (developing solvent: diethyl ether/hexane/acetic acid=80/20/1) by TLC (thin-layer chromatography), the amount of cholesteryl oleate formed was determined by an imaging plate.

[1] = target: T2, ACAT of rat liver microsomes (Rattus norvegicus, UniProt Q7TQM4); assay: Test for inhibitory activity against ACAT using rat liver microsomes; type: biochemical; settings: 5 min; 100 nM of each compound; Mean ± S.D.; n = 3; vs DMSO control; read-out: Inhibition rate against ACAT activity in rat liver microsome
T2 construct: rat liver microsome fraction prepared in accordance with a method known per se; from tissue; host or cells: rat liver microsomes
T2 sequence (Q7TQM4 1-524): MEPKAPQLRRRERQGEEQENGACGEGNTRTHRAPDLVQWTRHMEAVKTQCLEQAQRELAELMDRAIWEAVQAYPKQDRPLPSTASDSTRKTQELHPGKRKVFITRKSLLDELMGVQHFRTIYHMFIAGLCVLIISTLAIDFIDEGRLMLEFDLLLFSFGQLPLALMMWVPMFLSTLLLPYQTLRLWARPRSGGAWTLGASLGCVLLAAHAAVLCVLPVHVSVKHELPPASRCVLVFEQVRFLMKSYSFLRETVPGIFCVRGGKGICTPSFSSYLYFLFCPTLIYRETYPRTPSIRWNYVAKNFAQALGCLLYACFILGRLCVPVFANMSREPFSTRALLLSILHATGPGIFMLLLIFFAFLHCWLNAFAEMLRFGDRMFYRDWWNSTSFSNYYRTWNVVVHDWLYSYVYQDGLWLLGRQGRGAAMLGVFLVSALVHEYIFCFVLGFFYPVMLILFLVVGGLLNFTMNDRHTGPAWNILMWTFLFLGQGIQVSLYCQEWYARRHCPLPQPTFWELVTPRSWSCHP
Description: More specifically, [^14 C]oleoyl-CoA and delipidized BSA were added to a rat liver microsome fraction prepared in accordance with a method known per se in the art to conduct a reaction at 37° C. for 5 minutes. After the reaction, the lipid in the reaction mixture was extracted with hexane, and the extract was dried to solid under reduced pressure.

inhibition at 0.1 µM (ACAT in J774 cells): 86.3 ± 1.58% | inhibition at 0.1 µM [1]: 0%
SMILES: CC(C)c1cccc(C(C)C)c1NC(=O)NCc1cccc(OCc2ccc([N+](=O)[O-])cc2)c1 [Compound 1, 1-(2,6-diisopropylphenyl)-3-[3-(4-nitrobenzyloxy)benzyl]urea]
